Source: US20070082893A1, “Active substance combination” (LABORATORIOS DEL DR. ESTEVE S.A, priority 2004, published 2007)

Experiments:
male Swiss mice = experiment: Hot plate test in mice; format: in vivo; details: hot plate 55° C., Cizolirtine (as Citrate salt) 20 mg/kg i.p., Morphine 5 mg/kg s.c., combination 20 + 5 mg/kg; for % Analgesic activity 0.5 hours: 0.5 hours after administration; for % Analgesic activity 1 hour: 1 hour after administration; for % Analgesic activity 2 hours: 2 hours after administration
Description: The analgesic activity of the inventive active substance combination is determined in male Swiss mice (weight 20-25 g, Harlan Iberica, S. Feliu de Codinas, Barcelona, Spain) as described in the publication of G. Woolfe and A. D. MacDonald, J. Pharm. Exp. Ther. 1944, 80, pages 300-307. The respective description of this publication is incorporated by reference and forms part of the present disclosure.
According to this test the mice are put onto a plate, which is heated to 55° C. and the time is determined until the mice show signs of pain such as vigorous and repeated licking of the paws, jumping or pulling back the paws. The mice are kept on the hot plate for no longer than 40 seconds in order to avoid the development of cutaneous lesions. At first the untreated mice are subjected to the hot-plate test to determine a baseline for their pain induced behaviour. After 10 minutes the vehicle, the active substances and the inventive active substance combination to be tested are administered to different groups of mice. 0.5 hours, 1 hour and 2 hours after the administration the animals are put onto the hot plate and the time is measured until they show signs of pain. The analgesic efficacy of the active substances or active substance combination is calculated on the basis of the values obtained for the comparison group of mice which is only administered the vehicle.

male Swiss albino mice = system: male Swiss albino mice
Description: Pharmacodyn. 1971, 190, pages 213-218 in male Swiss albino mice (weight 20-25 g, Harlan Iberica, S. Feliu de Codinas, Barcelona, Spain).
Opioid dependency is developed in the mice by intraperitoneal administration of the opioid in a suitable dose known to those skilled in the art, e.g. 5 mg/kg/day for 4 consecutive days for morphine. Withdrawal symptoms are then induced by the intravenous administration of a suitable opioid antagonist in a dose known to those skilled in the art, for example, 2 mg/kg naloxone in case of morphine, 30 minutes after the administration of the final dose of the opioid is completed.
In the 30 minute period following the naloxone administration the mice show typical withdrawal symptoms, namely jumps and shakes (of the wet dog shake type), which are counted and registered.
The active substance combination is also administered to the mice for 4 consecutive days. After the administration of 2 mg/kg naloxone 30 minutes after the administration of the final dose of the active substance combination has been completed, the mice are closely watched for withdrawal symptoms, namely jumps and shakes (of the wet dog shake type), which are then counted and registered.
The influence of the active substance combination on withdrawal symptoms has been determined as described above.

[1] = 30 minute period after 2 mg/kg naloxone, Morphine 5 mg/kg/day s.c. over 4 days, alone or with Cizolirtine citrate 40 mg/kg/day i.p.

SMILES | % Analgesic activity 0.5 hours (male Swiss mice) [%] | % Analgesic activity 1 hour (male Swiss mice) [%] | % Analgesic activity 2 hours (male Swiss mice) [%] | withdrawal symptoms associated with morphine on co-administration (in words) (male Swiss albino mice; table B, co-administered with morphine, opioid amount not reduced) | Number of jumps (male Swiss albino mice; [1]) | Number of shakes (male Swiss albino mice; [1])
CN(C)CCOC(c1ccccc1)c1ccnn1C.O=C(O)CC(O)(CC(=O)O)C(=O)O (racemic) [Cizolirtine, (±)-5-[α-[2-(Dimethylamino)ethoxy]benzyl]-1-methyl-1H-pyrazole citrate] | 25.8 | 17.1 | 23.4 | significantly reduced |  | 
CN1CC[C@]23c4c5ccc(O)c4O[C@H]2[C@@H](O)C=C[C@H]3[C@H]1C5 [Morphine] | 48.6 | 34.8 | 15.8 |  | 6.6 | 16.3
